The term Kd denotes the concentration at which binding is half-saturated. A lower Kd goes with higher affinity.

This note sets out measurements from patent US20250296959A1, “B7-H3 TARGETING PEPTIDES AND CONSTRUCTS THEREOF” (Mariana Oncology Inc., priority 2024, published 2025).

The target of the assay is T1, human 4lg B7-H3 (Homo sapiens, UniProt Q5ZPR3).
T1 sequence (Q5ZPR3 29-534): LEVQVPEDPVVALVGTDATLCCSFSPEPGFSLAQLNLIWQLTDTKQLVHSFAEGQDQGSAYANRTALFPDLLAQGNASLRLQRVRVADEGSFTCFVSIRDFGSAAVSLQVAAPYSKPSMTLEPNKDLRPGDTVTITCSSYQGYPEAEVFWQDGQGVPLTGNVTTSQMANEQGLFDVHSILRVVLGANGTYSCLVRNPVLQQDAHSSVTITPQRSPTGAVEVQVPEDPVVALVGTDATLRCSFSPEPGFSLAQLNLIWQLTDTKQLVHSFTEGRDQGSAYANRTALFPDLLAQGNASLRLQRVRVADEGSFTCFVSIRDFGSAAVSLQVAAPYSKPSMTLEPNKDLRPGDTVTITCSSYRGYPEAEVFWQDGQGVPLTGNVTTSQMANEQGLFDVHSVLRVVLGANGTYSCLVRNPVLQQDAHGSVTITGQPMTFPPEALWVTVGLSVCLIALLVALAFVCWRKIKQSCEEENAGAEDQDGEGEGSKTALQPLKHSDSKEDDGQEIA
Nature of the assay: Affinity determination by surface plasmon resonance (SPR) to 4Ig B7-H3. To be noted: 4Ig B7-H3.

Where [1] appears, read: SPR KD—37° C., 37° C. flow cell temperature.
The mark [2] stands for this setting: SPR KD—25° C., 25° C. flow cell temperature.

Each structure is given as a SMILES string. Starred links: 1 amine or outer side, 2 acyl side, 3 side chain; linkers in the order of their positions; H or OH if unused. Positions of bridges follow the written chain, without caps; N, C: chain ends. Non-standard residues stand in square brackets, D forms with d. Residues, ends and D or L forms follow the SMILES beside them. Groups on a side chain read outwards from the residue. *: point of attachment. X6 = CSCC[C@H](NC(=O)c1ccc(CNC(=O)CN2CCN(CC(=O)O)CCN(CC(=O)O)CCN(CC(=O)O)CC2)cc1)C(=O)N[C@H](C(=O)N[C@@H](CCCCN*)C(=O)O)C(C)C; Ala(1-CH2CO2H-4-piperidyl) = N[C@@H](CC1CCN(CC(=O)O)CC1)C(=O)O; Ala(piperidin-4-yl) = O=C([C@H](CC1CCN([*:3])CC1)N[*:1])[*:2]; DOTA = O=C(O)CN1CCN(CC(=O)O)CCN(CC(=O)*)CCN(CC(=O)O)CC1; Phe(4-NHCONH2) = NC(=O)Nc1ccc(C[C@H](N)C(=O)O)cc1; Trp(4-Me) = Cc1cccc2[nH]cc(C[C@H](N)C(=O)O)c12; Trp(5-F) = N[C@@H](Cc1c[nH]c2ccc(F)cc12)C(=O)O; X1 = C[C@@H](c1ccccc1)[C@H](N[*:1])C(=O)[*:2]; 1Nal = N[C@@H](Cc1cccc2ccccc12)C(=O)O; Ala(4-THP) = N[C@@H](CC1CCOCC1)C(=O)O; Val(3-OH) = CC(C)(O)[C@H](N)C(=O)O; pGlu = O=C1CC[C@@H](C(=O)O)N1; PEG4 = NCCOCCOCCOCCOCCC(=O)O; Tle = CC(C)(C)[C@H](N)C(=O)O; hLeu = CC(C)CC[C@H](N)C(=O)O; αMeP = C[C@@]1(C(=O)O)CCCN1; Nle = CCCC[C@H](N)C(=O)O

In turn, `CCCC[C@H](NC(=O)[C@H](Cc1c[nH]c2ccc(F)cc12)NC(=O)[C@@H]1CSSC[C@H](NC(=O)[C@H](Cc2ccc(O)cc2)NC(=O)[C@H](CCC(C)C)NC(C)=O)C(=O)N[C@@H](C(C)(C)C)C(=O)NCC(=O)N[C@@H](CC2CCN(CC(=O)O)CC2)C(=O)N[C@@H](CC2CCOCC2)C(=O)N[C@@H](CC(=O)O)C(=O)N[C@@H](C(C)C)C(=O)N[C@@H](Cc2ccc(O)cc2)C(=O)N1)C(=O)N1CCC[C@H]1C(=O)N[C@H](CCCCNC(=O)CN1CCN(CC(=O)O)CCN(CC(=O)O)CCN(CC(=O)O)CC1)C(=O)O` [compound 321, Ac-hLeu-Y-C-Tbg-G-[Pip(CH2CO2H)Ala]-ThpA-D-V-Y-C-5FW-Nle-Pro-dLys(DOTA)-COOH] (Ac-[hLeu]YC[Tle]G[Ala(1-CH2CO2H-4-piperidyl)][Ala(4-THP)]DVYC[Trp(5-F)][Nle]P[dK](DOTA)-OH; disulfide 3-11) yielded an equilibrium dissociation constant (Kd) under setting [1] of 10 to 100 nM.
On the same count and under the same terms, next, `CC(=O)N[C@@H](CCC(C)C)C(=O)N[C@@H](Cc1ccc(O)cc1)C(=O)N[C@H]1CSSC[C@@H](C(=O)N[C@@H](Cc2c[nH]c3cccc(C)c23)C(=O)N[C@@H](Cc2ccccc2)C(=O)N[C@H](C(=O)N[C@H](CCCCNC(=O)CN2CCN(CC(=O)O)CCN(CC(=O)O)CCN(CC(=O)O)CC2)C(=O)O)C(C)(C)O)NC(=O)[C@H](Cc2ccc(O)cc2)NC(=O)[C@H](C(C)C)NC(=O)[C@H](CC(=O)O)NC(=O)[C@H](CC2CCOCC2)NC(=O)[C@H](CC2CCNCC2)NC(=O)CNC(=O)[C@H](C(C)(C)C)NC1=O` [compound 473, Ac-hLeu-Y-C-Tbg-G-PipAla-ThpA-D-V-Y-C-4MeW-F-hydroxyVal-dLys(DOTA)-COOH] (Ac-[hLeu]YC[Tle]G[Ala(piperidin-4-yl)][Ala(4-THP)]DVYC[Trp(4-Me)]F[Val(3-OH)][dK](DOTA)-OH; disulfide 3-11): 1 to 10 nM.
Turning to `CC(=O)N[C@@H](CCC(C)C)C(=O)N[C@@H](Cc1ccc(O)cc1)C(=O)N[C@H]1CSSC[C@@H](C(=O)N[C@@H](Cc2cccc3ccccc23)C(=O)N[C@@H](Cc2ccccc2)C(=O)N2CCC[C@@]2(C)C(=O)N[C@H](CCCCNC(=O)CN2CCN(CC(=O)O)CCN(CC(=O)O)CCN(CC(=O)O)CC2)C(N)=O)NC(=O)[C@H](Cc2ccc(O)cc2)NC(=O)[C@H](C(C)C)NC(=O)[C@H](CC(=O)O)NC(=O)[C@H](Cc2ccc(O)cc2)NC(=O)[C@H](CCCCN)NC(=O)CNC(=O)[C@H](C(C)C)NC1=O` [compound 247, Ac-hLeu-Y-C-V-G-K-Y-D-V-Y-C-1Nal-F-aMePro-dLys(DOTA)-CONH2] (Ac-[hLeu]YCVGKYDVYC[1Nal]F[αMeP][dK](DOTA)-NH2; disulfide 3-11), under setting [2], the Kd was in the range of 1 to 10 nM.
For the molecule `CC(=O)N[C@@H](CCC(C)C)C(=O)N[C@@H](Cc1ccc(O)cc1)C(=O)N[C@H]1CSSC[C@@H](C(=O)N[C@@H](Cc2c[nH]c3ccc(F)cc23)C(=O)N[C@@H](Cc2ccccc2)C(=O)N[C@H](C(N)=O)C(C)(C)O)NC(=O)[C@H](Cc2ccc(O)cc2)NC(=O)[C@H](C(C)C)NC(=O)[C@H](CC(=O)O)NC(=O)[C@H](CC2CCOCC2)NC(=O)[C@H](CCCCN)NC(=O)CNC(=O)[C@H](C(C)(C)C)NC1=O` [compound 404, Ac-hLeu-Y-C-Tbg-G-K-ThpA-D-V-Y-C-5FW-F-hydroxyVal-CONH2] (Ac-[hLeu]YC[Tle]GK[Ala(4-THP)]DVYC[Trp(5-F)]F[Val(3-OH)]-NH2; disulfide 3-11), the dissociation constant (Kd) under setting [1] fell in the range of 1 to 10 nM.
For the molecule `CC(=O)N[C@@H](CCC(C)C)C(=O)N[C@@H](Cc1ccc(O)cc1)C(=O)N[C@H]1CSSC[C@@H](C(=O)N[C@@H](Cc2c[nH]c3ccc(F)cc23)C(=O)N[C@@H](Cc2ccccc2)C(=O)N[C@H](C(N)=O)C(C)(C)O)NC(=O)[C@H](Cc2ccc(O)cc2)NC(=O)[C@H](C(C)C)NC(=O)[C@H](CC(=O)O)NC(=O)[C@H](CC2CCN(C(=O)CCOCCOCCOCCOCCNC(=O)CN3CCN(CC(=O)O)CCN(CC(=O)O)CCN(CC(=O)O)CC3)CC2)NC(=O)[C@H](CC2CCNCC2)NC(=O)CNC(=O)[C@H](C(C)(C)C)NC1=O` [compound 445, Ac-hLeu-Y-C-Tbg-G-PipAla-Pip(PEG4-DOTA)Ala-D-V-Y-C-5FW-F-hydroxyVal-CONH2] (Ac-[hLeu]YC[Tle]G[Ala(piperidin-4-yl)][Ala(piperidin-4-yl)]([PEG4-DOTA])DVYC[Trp(5-F)]F[Val(3-OH)]-NH2; disulfide 3-11), the Kd under setting [1] is < 1 nM.
Same read-out and setting: with `CSCC[C@H](NC(=O)c1ccc(CNC(=O)CN2CCN(CC(=O)O)CCN(CC(=O)O)CCN(CC(=O)O)CC2)cc1)C(=O)N[C@H](C(=O)N[C@@H](CCCCNC(=O)[C@@H](NC(=O)[C@@H](NC(=O)[C@H](Cc1c[nH]c2ccc(F)cc12)NC(=O)[C@@H]1CSSC[C@H](NC(=O)[C@H](Cc2ccc(O)cc2)NC(=O)[C@H](CCC(C)C)NC(C)=O)C(=O)N[C@@H](C(C)(C)C)C(=O)NCC(=O)N[C@@H](CC2CCNCC2)C(=O)N[C@@H](CC2CCOCC2)C(=O)N[C@@H](CC(=O)O)C(=O)N[C@@H](C(C)C)C(=O)N[C@@H](Cc2ccc(O)cc2)C(=O)N1)[C@@H](C)c1ccccc1)C(C)(C)O)C(=O)O)C(C)C` [Cpd #517, Ac-hLeu-Y-C-Tbg-G-PipAla-ThpA-D-V-Y-C-5FW-[(2S, 3S)beta-Me-Phe]-hydroxyVal-&Lys(Val-Met-AmBz-DOTA)-COOH] (Ac-[hLeu]YC[Tle]G[Ala(piperidin-4-yl)][Ala(4-THP)]DVYC[Trp(5-F)][X1][Val(3-OH)]-X6; disulfide 3-11) the figure was < 1 nM; with `CC(C)CC[C@H](NC(=O)[C@@H]1CCC(=O)N1)C(=O)N[C@@H](Cc1ccc(O)cc1)C(=O)N[C@H]1CSSC[C@@H](C(=O)N[C@@H](Cc2c[nH]c3ccc(F)cc23)C(=O)N[C@H](C(=O)N[C@H](C(=O)N[C@H](CCCCNC(=O)CN2CCN(CC(=O)O)CCN(CC(=O)O)CCN(CC(=O)O)CC2)C(=O)O)C(C)(C)O)[C@@H](C)c2ccccc2)NC(=O)[C@H](Cc2ccc(O)cc2)NC(=O)[C@H](C(C)C)NC(=O)[C@H](CC(=O)O)NC(=O)[C@H](CC2CCOCC2)NC(=O)[C@H](CC2CCNCC2)NC(=O)CNC(=O)[C@H](C(C)(C)C)NC1=O` [compound 507, Pyroglutamate-hLeu-Y-C-Tbg-G-PipAla-ThpA-D-V-Y-C-5FW-[(2S, 3S)beta-Me-Phe]-hydroxyVal-dLys(DOTA)-COOH] ([pGlu][hLeu]YC[Tle]G[Ala(piperidin-4-yl)][Ala(4-THP)]DVYC[Trp(5-F)][X1][Val(3-OH)][dK](DOTA)-OH; disulfide 4-12), < 1 nM; with `CC(C)CC[C@H](NC(=O)[C@@H]1CCC(=O)N1)C(=O)N[C@@H](Cc1ccc(O)cc1)C(=O)N[C@H]1CSSC[C@@H](C(=O)N[C@@H](Cc2c[nH]c3ccc(F)cc23)C(=O)N[C@H](C(=O)N[C@H](C(=O)N[C@H](CCCCNC(=O)[C@H](CCC(=O)O)NC(=O)CN2CCN(CC(=O)O)CCN(CC(=O)O)CCN(CC(=O)O)CC2)C(=O)O)C(C)(C)O)[C@@H](C)c2ccccc2)NC(=O)[C@H](Cc2ccc(NC(N)=O)cc2)NC(=O)[C@H](C(C)C)NC(=O)[C@H](CC(=O)O)NC(=O)[C@H](CC2CCOCC2)NC(=O)[C@H](CC2CCNCC2)NC(=O)CNC(=O)[C@H](C(C)(C)C)NC1=O` [compound 505, Pyroglutamate-hLeu-Y-C-Tbg-G-PipAla-ThpA-D-V-Aph(Cbm)-C-5FW-[(2S, 3S)beta-Me-Phe]-hydroxyVal-dLys(Glu-DOTA)-COOH] ([pGlu][hLeu]YC[Tle]G[Ala(piperidin-4-yl)][Ala(4-THP)]DV[Phe(4-NHCONH2)]C[Trp(5-F)][X1][Val(3-OH)][dK]([Glu-DOTA])-OH; disulfide 4-12), < 1 nM.
On to `CSCC[C@H](NC(C)=O)C(=O)N[C@@H](Cc1ccc(O)cc1)C(=O)N[C@H]1CSSC[C@@H](C(=O)N[C@@H](Cc2c[nH]c3ccccc23)C(=O)N[C@@H](Cc2ccccc2)C(N)=O)NC(=O)[C@H](Cc2ccc(O)cc2)NC(=O)[C@H](C(C)C)NC(=O)[C@H](CC(=O)O)NC(=O)[C@H](Cc2ccc(O)cc2)NC(=O)[C@H](CCCCN)NC(=O)CNC(=O)[C@H](C(C)C)NC1=O` [compound 1, Ac-M-Y-C-V-G-K-Y-D-V-Y-C-W-F-CONH2] (Ac-MYCVGKYDVYCWF-NH2; disulfide 3-11), for which the Kd reads like this: under setting [2], 100 to 300 nM; under setting [1], 100 to 300 nM.
For `CC(=O)N[C@@H](CCC(C)C)C(=O)N[C@@H](Cc1ccc(O)cc1)C(=O)N[C@H]1CSSC[C@@H](C(=O)N[C@@H](Cc2c[nH]c3ccc(F)cc23)C(=O)N[C@@H](Cc2ccccc2)C(=O)N[C@H](C(=O)N[C@H](CO)C(N)=O)C(C)(C)O)NC(=O)[C@H](Cc2ccc(O)cc2)NC(=O)[C@H](C(C)C)NC(=O)[C@H](CC(=O)O)NC(=O)[C@H](CC2CCN(C(=O)CCOCCOCCOCCOCCNC(=O)CN3CCN(CC(=O)O)CCN(CC(=O)O)CCN(CC(=O)O)CC3)CC2)NC(=O)[C@H](CC2CCNCC2)NC(=O)CNC(=O)[C@H](C(C)(C)C)NC1=O` [compound 446, Ac-hLeu-Y-C-Tbg-G-PipAla-Pip(PEG4-DOTA)Ala-D-V-Y-C-5FW-F-hydroxyVal-dSer-CONH2] (Ac-[hLeu]YC[Tle]G[Ala(piperidin-4-yl)][Ala(piperidin-4-yl)]([PEG4-DOTA])DVYC[Trp(5-F)]F[Val(3-OH)][dS]-NH2; disulfide 3-11), the Kd under setting [1] is < 1 nM.
